Assay results published in patent US4173641A, “Di-O-n-alkyl glycerol derivatives as immune stimulants” (priority 1978, dated 1979).
Where “and” joins values, the source holds several entries; their conditions need not be identical. Equal values may be shown once. Where a name gives a salt, the structure may show the parent alone. Read-outs that look alike come from different tables or passages of the source.

Assays:
[1] = test system: S-180J cells (sarcoma 180J); experiment: Sarcoma 180J model for assessment of tumor rejection; format: in vivo, female CD-1 mice; details: for number of 40 day survivors: six mice per group
Method: Six female CD-1 mice (20-25 g) per group received 10^6 S-180J cells which were 5 to 8 days old by intraperitoneal administration. On the day following tumor innoculation the mice received 0.1 ml of the test compound formulated in the fat emulsion vehicle Intralipid (Cutter Laboratories) at the desired dose and were then observed until death or 40 days, whichever occurs first. Results are expressed as increased percent life span (%ILS), defined as follows: [formula] Results obtained by the above test procedure were as follows:
Results of the above test obtained with (1-hydroxy-2-alkylamino ethyl)-benzyloxy analogs of this invention formulated in Tween 80-glycerol-water are shown in Table 2.
(Numbers in parentheses in Tables 1 and 2 above are the number

in vivo = experiment: in vivo; parameters: species or system mice and rats; details: read-out: therapeutic index
Excerpt: The compounds may be used in pharmaceutical preparations containing the compound or a pharmaceutically acceptable salt thereof in combination with a pharmaceutically acceptable carrier or diluent. A particularly preferred type of pharmaceutical carrier for this purpose is a sterile fat or lipid emulsion vehicle. […] Such advantages have been reported for other compounds used with such fat emulsion vehicles, see for example Fortner, et al., American Journal of Hospital Pharmacy, 32, 502 (1975) and Jeppsson, et al., First International Conference on Pharmaceutical technology, Faculty of Pharmacy, Paris-Sud, June 1977. An example of a particularly suitable vehicle is Intralipid (Cutter Laboratories, Berkeley, California), a 10% fat emulsion, based on soybean oil. However, other similar vehicles would be suitable and may be readily prepared by those skilled in the art.

Influenza virus = experiment: Vaccine adjuvanticity - hemagglutination inhibition test; format: in vivo, Hartley female guinea pigs (vaccinated); influenza virus; details: for Hemagglutination Titer: compound (5 mg) with Fluogen, individual animal
[2] = test system: L1210 cells / peripheral blood monocytes; experiment: Assessment of peripheral blood monocyte activation (inhibition of DNA synthesis in L1210 cells); format: in vivo, rats; details: Rattus norvegicus, intravenous, monocytes harvested 72 hours later, Effector:Target ratio 15:1
Method: Mice were injected intraperitoneally with saline or the test compound. Macrophages were harvested 72 hours later by intraperitoneal injection of 3 ml 8% fetal calf serum-- 92% RPMI 1640 medium (Grand Island Biological Co., N.Y.) (164092 FCS8) plus 5 units/ml of heparin, the temperature of all media being kept at 37° C., lavaged 1 to 2 minutes, opened and all peritoneal fluid drawn off with a sterile, siliconized pipet into a 50 ml plastic tube kept in ice. The macrophages were counted using a hemocytometer and adjusted to a concentration of 1.5×10^6 /ml with 164092 FCS8. The cells were then placed in multiwell plates, 1.5×10^6 cells per well, and incubated for 1 to 2 hours at 37° C. in a 5% carbon dioxide atmosphere. The supernate was discarded and the cells were washed once with media, the macrophages adhering to the bottom of the wells. L 1210 cells (harvested from ascites of DBA mice approximately 5 days after innoculation) in 164092 FCS8 were then added, 1 ml of 1×10^5 cells/ml to each well and incubated at 37° C. for 24 to 30 hours in a 5% carbon dioxide atmosphere. […]
Rats were injected intravenously with the test compound, or with saline for control animals. […] Following the procedure described in Example 13 the cells were pulsed with ^3 H-Tdr and counted with a scintillation counter.

[3] = test system: L 1210 cells / peritoneal macrophages; experiment: Assessment of peritoneal macrophage activation (inhibition of DNA synthesis in L 1210 cells); format: in vivo, mice; details: Mus musculus, L1210, ip, intraperitoneal, macrophages harvested 72 hours later
Method: Mice were injected intraperitoneally with saline or the test compound. Macrophages were harvested 72 hours later by intraperitoneal injection of 3 ml 8% fetal calf serum-- 92% RPMI 1640 medium (Grand Island Biological Co., N.Y.) (164092 FCS8) plus 5 units/ml of heparin, the temperature of all media being kept at 37° C., lavaged 1 to 2 minutes, opened and all peritoneal fluid drawn off with a sterile, siliconized pipet into a 50 ml plastic tube kept in ice. The macrophages were counted using a hemocytometer and adjusted to a concentration of 1.5×10^6 /ml with 164092 FCS8. The cells were then placed in multiwell plates, 1.5×10^6 cells per well, and incubated for 1 to 2 hours at 37° C. in a 5% carbon dioxide atmosphere. The supernate was discarded and the cells were washed once with media, the macrophages adhering to the bottom of the wells. L 1210 cells (harvested from ascites of DBA mice approximately 5 days after innoculation) in 164092 FCS8 were then added, 1 ml of 1×10^5 cells/ml to each well and incubated at 37° C. for 24 to 30 hours in a 5% carbon dioxide atmosphere. The cells were then pulsed with ^3 H-Tdr (1.0μCi/ml; Amersham/Searles) for 6 hours at 37° C., the supernate drawn off using a cell harvester: Reeve-Angel filter, and washed five times with saline. The filter discs were allowed to dry and placed in scintillation vials with LSC scintillation fluid (5.0 g PPO and 0.2 g POPOP/liter toluene; Yorktown Research). Counting was done for 2 minutes using a Beekman LS-250 β-counter.

[4] = 5 mg/kg, Tween 80-glycerol-water
[5] = 15 mg/kg, Tween 80-glycerol-water
[6] = 50 mg/kg, Tween 80-glycerol-water
[7] = 0.25 mg/kg, fat emulsion vehicle Intralipid
[8] = 1 mg/kg, fat emulsion vehicle Intralipid
[9] = 4 mg/kg, fat emulsion vehicle Intralipid
[10] = 16 mg/kg, fat emulsion vehicle Intralipid

Row | Structure (SMILES) | %ILS (increased percent life span) [1, 4] [%] | number of 40 day survivors [1, 4] | %ILS (increased percent life span) [1, 5] [%] | %ILS (increased percent life span) [1, 6] [%] | number of 40 day survivors [1, 6] | %ILS (increased percent life span) [1, 7] [%] | %ILS (increased percent life span) [1, 8] [%] | %ILS (increased percent life span) [1, 9] [%] | %ILS (increased percent life span) [1, 10] [%] | also measured
1 | CCCCCCCCCCCCCCCCOCC(COCCCCCCCCCCCCCCCC)OCc1cccc(C(O)CNC(C)(C)C)c1 (stereo not drawn) [C(CH3)3 1,3] | 159 | 1 | 171 | 157 | 2 | – | – | – | – | number of 40 day survivors [1, 5]: 3
2 | CCCCCCCCCCCCCCCCOCC(COCc1cccc(C(O)CNC(C)(C)C)c1)OCCCCCCCCCCCCCCCC.Cl (stereo not drawn) [C(CH3)3 2,3, 1,2-Di-O-(n-hexadecyl)-3-O-[3-(1-hydroxy-2-t-butylaminoethyl)benzyl]-glycerol hydrochloride] | 166 | 2 | 181 | 182 | 4 | – | – | – | – | number of 40 day survivors [1, 5]: 4
3 | CCCCCCCCCCCCCCCCOCC(COCc1cccc(C(O)CNC(C)C)c1)OCCCCCCCCCCCCCCCC (stereo not drawn) [CH(CH3)2 2,3] | 174 | 1 | 135 | 147 | 1 | – | – | – | – | –
4 | CCCCCCCCOCC(CN1CCC(CN)(c2ccccc2)CC1)OCCCCCCCC (stereo not drawn) [n-C8 H17] | – | – | – | – | – | 113 | 109 | 154 | 192 | number of 40 day survivors ([1]; 4 mg/kg, Intralipid): 1; number of 40 day survivors ([1]; 16 mg/kg, Intralipid): 4; selectivity ratio (in vivo; Tween 80-glycerol-water formulations): ~3; selectivity ratio (in vivo; sterile fat or lipid emulsion vehicle, parenteral and intravenous): 15 to 25
5 | CCCCCCCCCCOCC(CN1CCC(CN)(c2ccccc2)CC1)OCCCCCCCCCC (stereo not drawn) [n-C10 H21, 4-Aminomethyl-1-[2,3-(di-n-decyloxy)-n-propyl]-4-phenylpiperidine] | – | – | – | – | – | 127 | 139 | 110 | 108 | number of 40 day survivors ([1]; 1 mg/kg, Intralipid): 1; Hemagglutination Titer (Influenza virus; day 15 after primary sensitization): 10 and 0; Hemagglutination Titer (Influenza virus; day 30 after primary sensitization (rechallenge day)): 10 and 40 and 20 and 0; Hemagglutination Titer (Influenza virus; day 44 after primary sensitization, rechallenged at 30 days): 80 and 640 and 10 and 40; Hemagglutination Titer (Influenza virus; day 65 after primary sensitization, rechallenged at 30 days): 1280 and 2560 and 160 and 20 and 10; hemagglutination titer observed after rechallenge (adjuvant activity) (Influenza virus; compound with Fluogen, in words): higher hemagglutination titer observed after rechallenge; inhibition at 1.25 mg/kg [2]: 80%; inhibition at 0.313 mg/kg ([3]; 0.313 mg/kg): 56%; inhibition at 0.625 mg/kg ([3]; 0.625 mg/kg): 94%; inhibition at 1.25 mg/kg ([3]; 1.25 mg/kg): 76%
6 | CCCCCCCCCCCCCCOCC(CN1CCC(CN)(c2ccccc2)CC1)OCCCCCCCCCCCCCC (stereo not drawn) [n-C14 H29] | – | – | – | – | – | 129 | 116 | 133 | 109 | number of 40 day survivors ([1]; 0.25 mg/kg, Intralipid): 1; inhibition at 25 mg/kg ([3]; 25 mg/kg): 90%
7 | CCCCCCCCCCCCCCCCOCC(CN1CCC(CN)(c2ccccc2)CC1)OCCCCCCCCCCCCCCCC (stereo not drawn) [n-C16 H33, 4-Aminomethyl-1-[2,3-(di-n-hexadecyloxy)-n-propyl]-4-phenylpiperidine Dihydrochloride] | – | – | – | – | – | 110 | 105 | 104 | 127 | –
8 | CCCCCCCCCCCCCCCCCCOCC(CN1CCC(CN)(c2ccccc2)CC1)OCCCCCCCCCCCCCCCCCC (stereo not drawn) [n-C18 H37] | – | – | – | – | – | 119 | 158 | 98 | 109 | number of 40 day survivors ([1]; 1 mg/kg, Intralipid): 2
